{
  "source": "PubChem BioAssay AID2060509",
  "about": "(Molecular Pharmacology Branch, DTP, NCI, 2025)",
  "tested_on": "485176-168-R4-J1-PDC spheroids with HUVEC/MSC, viability",
  "assay": "Anticancer human tumor 485176-168-R4-J1-PDC patient-derived pancreatic adenocarcinoma cell line growth inhibition [GQUAD]",
  "details": "for pIC50: curve of first compound; for viability, T/C: stronger effect = lower value",
  "text": "DNA G-quadruplex Stabilizer Agents in Combinations in Complex Spheroids\nA high-throughput screen of multi-cell type tumor spheroids was designed to identify active combinations of DNA G-quadruplex stabilizer agents and targeted small molecules. Complex spheroids include a stromal component modeled by human endothelial cells (HUVEC) and fibroblasts modeled by human mesenchymal stem cells (MSCs). The concentration ranges selected for each drug and investigational agent were based upon clinically achievable concentrations if the clinical Cmax of the agent was known.\nCompounds. The drugs and investigational agents: pidnarulex (CX-5461; NSC782164), APTO-253 (NSC789042), BRACO-19 (NSC847499), peposertib (NSC802822), ceralasertib (NSC780249), elimusertib (NSC800525), camonsertib (NSC841442), AZD-1390 (NSC803789), olaparib (NSC753686), talazoparib (NSC767125), ART-558 (NSC835418), sotorasib (NSC818433), MRTX-1133 (NSC836407), SN-38 (NSC673596), topotecan (NSC609699), etoposide (NSC141540), doxorubicin (NSC123127), gemcitabine (NSC613327), 5-fluorouracil (NSC19893), paclitaxel (NSC125973), vemurafenib (NSC761431), panobinostat (NSC761190), R-306465 (JNJ-16241199; NSC773264), adavosertib (NSC754352), TP-3654 (NSC805149), carboplatin (NSC241240), KSQ-4279 (NSC840948), and staurosporine (NSC755774) were obtained from the National Cancer Institute (NCI) Developmental Therapeutics Program Chemical Repository (34). The FDA-approved anticancer drug set is available from the NCI Developmental Therapeutics Program. […] The stock solutions were prepared in dimethyl sulfoxide (DMSO, Sigma-Aldrich, St. Louis, MO, cat. D2650) at 800-fold the tested concentration and stored at -70 degrees C prior to their use. All drugs and investigational agents were tested over a range starting from a high concentration at or near the clinical Cmax and decreasing in half-log increments. If the clinical Cmax for an agent had not been determined, the highest concentration tested was 10 microM.\n2.3 Cell Culture. All cells were maintained in an incubator at 37 degrees C and 5% CO2 with 95% humidity. The PDC lines were cultured according to standard operating procedures established by the NCI PDMR. All PDCs were thawed and cultured in Matrigel-coated flasks prepared with a working solution of 1X Ham's F-12 nutrient mix, without supplementation (Invitrogen, cat. 11765054), 100 U/mL penicillin-streptomycin (Invitrogen, cat. 15140122), and 2.5% Matrigel (Corning Inc., cat. 354248) for the first three passages. The 857933-349-R-J2-PDC line was cultured in 6C/Colon 1B media, which includes advanced DMEM/F-12 (Thermo Fisher Scientific, cat. 12634028), 10 mM HEPES (Thermo Fisher Scientific, cat. 15630080), 1X GlutaMAX supplement (Thermo Fisher Scientific, cat. 35050061), 0.1 mg/mL primocin (InvivoGen, cat. ant-pm-2), 10% defined fetal bovine serum, heat inactivated (HyClone Laboratories Inc., cat. SH30070.03HI), 50% L-WRN conditioned media (ATCC, cat. CRL-3276), 1.25 mM N-Acetyl-L-cysteine (Sigma-Aldrich, cat. A9165), 10 mM nicotinamide (Sigma-Aldrich, cat. N0636), 1X B-27 supplement (Thermo Fisher Scientific, cat. 17504044), 1X N-2 supplement (Thermo Fisher Scientific, cat. 17502048), 10 microM Y-27632 dihydrochloride (Tocris Bioscience, cat. 1254), and 50 ng/mL human EGF recombinant protein (Thermo Fisher Scientific, cat. PHG0311). The 485176-168-R4-J1-PDC line was cultured in Panc media, which includes all 6C/Colon 1B media components plus 100 ng/mL human FGF-10 (Thermo Fisher Scientific, cat. 100-26), 500 nM SB-431542 (Selleckchem, cat. S1067), and gastrin (Tocris, cat. 3006).\n[…]",
  "note": "pIC50: −log10 of the molar value.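 Also: spheroids exposed to compounds for seven days before readout.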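 For viability, T/C in this document: percent viability relative to DMSO vehicle control wells as 100%.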",
  "data": [
    {"smiles": "CC1COCCN1c1cc(-c2ccnn2C)c2ccnc(-c3ccn[nH]3)c2n1", "note": "(configuration not stated) + CN(C)c1ccc(Nc2c3ccc(NC(=O)CCN4CCCC4)cc3nc3cc(NC(=O)CCN4CCCC4)ccc23)cc1", "values": [
      {"measurement": "pIC50", "setting": "second compound 0.0316 µM", "result": 7.03},
      {"measurement": "pIC50", "setting": "second compound 0.1 µM", "result": 6.93},
      {"measurement": "pIC50", "setting": "second compound 0.316 µM", "result": 6.95},
      {"measurement": "pIC50", "setting": "second compound 1 µM", "result": 7.05},
      {"measurement": "pIC50", "setting": "second compound 3.16 µM", "result": 7.15},
      {"measurement": "pIC50", "setting": "second compound 10 µM", "result": 7.24},
      {"measurement": "viability, T/C", "setting": "second compound 0.0316 µM, first compound 0.0316 µM", "result": 83.6, "unit": "%"},
      {"measurement": "viability, T/C", "setting": "second compound 0.0316 µM, first compound 0.1 µM", "result": 47.7, "unit": "%"},
      {"measurement": "viability, T/C", "setting": "second compound 0.0316 µM, first compound 0.316 µM", "result": 17, "unit": "%"},
      {"measurement": "viability, T/C", "setting": "second compound 0.0316 µM, first compound 1 µM", "result": 11.2, "unit": "%"},
      {"measurement": "viability, T/C", "setting": "second compound 0.0316 µM, first compound 3.16 µM", "result": 10.4, "unit": "%"},
      {"measurement": "viability, T/C", "setting": "second compound 0.0316 µM, first compound 10 µM", "result": 11.1, "unit": "%"},
      {"measurement": "viability, T/C", "setting": "second compound 0.1 µM, first compound 0.0316 µM", "result": 84.2, "unit": "%"},
      {"measurement": "viability, T/C", "setting": "second compound 0.1 µM, first compound 0.1 µM", "result": 54.9, "unit": "%"},
      {"measurement": "viability, T/C", "setting": "second compound 0.1 µM, first compound 0.316 µM", "result": 18.7, "unit": "%"},
      {"measurement": "viability, T/C", "setting": "second compound 0.1 µM, first compound 1 µM", "result": 11.8, "unit": "%"},
      {"measurement": "viability, T/C", "setting": "second compound 0.1 µM, first compound 3.16 µM", "result": 10.7, "unit": "%"},
      {"measurement": "viability, T/C", "setting": "second compound 0.1 µM, first compound 10 µM", "result": 8.57, "unit": "%"},
      {"measurement": "viability, T/C", "setting": "second compound 0.316 µM, first compound 0.0316 µM", "result": 81.2, "unit": "%"},
      {"measurement": "viability, T/C", "setting": "second compound 0.316 µM, first compound 0.1 µM", "result": 52.9, "unit": "%"},
      {"measurement": "viability, T/C", "setting": "second compound 0.316 µM, first compound 0.316 µM", "result": 20.2, "unit": "%"},
      {"measurement": "viability, T/C", "setting": "second compound 0.316 µM, first compound 1 µM", "result": 10.3, "unit": "%"},
      {"measurement": "viability, T/C", "setting": "second compound 0.316 µM, first compound 3.16 µM", "result": 9.46, "unit": "%"},
      {"measurement": "viability, T/C", "setting": "second compound 0.316 µM, first compound 10 µM", "result": 10.1, "unit": "%"},
      {"measurement": "viability, T/C", "setting": "second compound 1 µM, first compound 0.0316 µM", "result": 87.5, "unit": "%"},
      {"measurement": "viability, T/C", "setting": "second compound 1 µM, first compound 0.1 µM", "result": 45.9, "unit": "%"},
      {"measurement": "viability, T/C", "setting": "second compound 1 µM, first compound 0.316 µM", "result": 23.8, "unit": "%"},
      {"measurement": "viability, T/C", "setting": "second compound 1 µM, first compound 1 µM", "result": 12.3, "unit": "%"},
      {"measurement": "viability, T/C", "setting": "second compound 1 µM, first compound 3.16 µM", "result": 11.4, "unit": "%"},
      {"measurement": "viability, T/C", "setting": "second compound 1 µM, first compound 10 µM", "result": 9.79, "unit": "%"},
      {"measurement": "viability, T/C", "setting": "second compound 3.16 µM, first compound 0.0316 µM", "result": 64.7, "unit": "%"},
      {"measurement": "viability, T/C", "setting": "second compound 3.16 µM, first compound 0.1 µM", "result": 43.5, "unit": "%"},
      {"measurement": "viability, T/C", "setting": "second compound 3.16 µM, first compound 0.316 µM", "result": 17.4, "unit": "%"},
      {"measurement": "viability, T/C", "setting": "second compound 3.16 µM, first compound 1 µM", "result": 12.6, "unit": "%"},
      {"measurement": "viability, T/C", "setting": "second compound 3.16 µM, first compound 3.16 µM", "result": 10.6, "unit": "%"},
      {"measurement": "viability, T/C", "setting": "second compound 3.16 µM, first compound 10 µM", "result": 11.3, "unit": "%"},
      {"measurement": "viability, T/C", "setting": "second compound 10 µM, first compound 0.0316 µM", "result": 61.1, "unit": "%"},
      {"measurement": "viability, T/C", "setting": "second compound 10 µM, first compound 0.1 µM", "result": 39.8, "unit": "%"},
      {"measurement": "viability, T/C", "setting": "second compound 10 µM, first compound 0.316 µM", "result": 23.9, "unit": "%"},
      {"measurement": "viability, T/C", "setting": "second compound 10 µM, first compound 1 µM", "result": 13.3, "unit": "%"},
      {"measurement": "viability, T/C", "setting": "second compound 10 µM, first compound 3.16 µM", "result": 11.4, "unit": "%"},
      {"measurement": "viability, T/C", "setting": "second compound 10 µM, first compound 10 µM", "result": 9.08, "unit": "%"}
    ]}
  ]
}
